# Measurements reported in US11225605B2, “Polymerizable liquid crystal compound, method for producing polymerizable liquid crystal compound, polymerizable liquid crystal composition, optically anisotropic film, optical film, polarizing plate, and image display device” (FUJIFILM Corporation, priority 2017, dated 2022).
# How the values were obtained:
# [1] = Durability of optically anisotropic film at high temperature and high humidity; format: physicochemical; settings: for Durability 100° C. Relatibe 144 hours: film left 144 hours at relative humidity 95%, variation in Re (550); for Durability of optically anisotropic film: result in words
# Experimental: With regard to a test condition for durability, a test in which the film was left to stand for 144 hours in an environment of a relative humidity of 95% at 100° C. was performed as described in Table 6 below.
# [2] = Solubility in methyl ethyl ketone (MEK) and cyclopentanone (CPN); format: physicochemical; settings: for Solubility Evaluation: MEK or CPN; for Solubility CPO: cyclopentanone; for Solubility CPO / Solubility MEK: shaken at 50° C., left at room temperature (23° C.) for 10 minutes; for Solubility MEK: methyl ethyl ketone
# Experimental: Specifically, 50 mg of the compound was weighed into a 1.5-mL sample bottle, and a solvent was added thereto until the solid content became 40% by weight (75 mg).
# The mixture was thoroughly shaken by the hand at 50° C. and left to stand at room temperature (23° C.) for 10 minutes. Then, this operation was stopped in a case where the mixture was clear upon visual observation, and it was determined that the solubility was 40% by weight. A solvent was added so that the solid content became 35% by weight in a case where there were undissolved residues (+18 mg). The mixture was thoroughly shaken by the hand at 50° C. and left to stand at room temperature (23° C.) for 10 minutes. […] A solvent was added so that the solid content became 30% by weight in a case where there were undissolved residues. The same operation was performed in 5%-by-weight steps and repeated up to 5% by weight. In a case where there were undissolved residues, it was determined that the solubility was less than 5% by weight (<5% by weight), and the operation was stopped. Methyl ethyl ketone (MEK) and cyclopentanone (CPN) were used as solvents for solubility measurement.
SMILES,Solubility CPO [2],Solubility MEK [2],Durability of optically anisotropic film [1],Durability 100° C. Relatibe 144 hours [1],Solubility Evaluation [2]
C=CC(=O)OCCCCCCOc1ccc(OC(=O)C2CCC(C(=O)Oc3cc(C(C)(C)C)c(OC(=O)C4CCC(C(=O)Oc5ccc(OCCCCCCOC(=O)C=C)cc5)CC4)c4c3SC(=C(C#N)C#N)S4)CC2)cc1 (centres unmarked) [Compound E-1],10 % by weight,8 % by weight,deteriorate,C (A variation in Re (550) after the test with respect to the initial retardation value is 30% or more.),C (A solubility in any one of MEK or CPN is less than 15%.)
C=CC(=O)OCC(C)(C)COC(=O)CCC(=O)OCCc1ccc(OC(=O)C2CCC(C(=O)Oc3ccc(OC(=O)C4CCC(C5CCC(CC)CC5)CC4)c4c3SC(=C(C#N)C#N)S4)CC2)cc1 (centres unmarked) [Compound A-1],10 % by weight,1 % by weight,deteriorated,C (A variation in Re (550) after the test with respect to the initial retardation value is 30% or more.),C (A solubility in any one of MEK or CPN is less than 15%.)
C=CC(=O)OCC(C)(C)COC(=O)CCC(=O)OCCc1ccc(OC(=O)C2CCC(C(=O)Oc3c(C)cc(OC(=O)C4CCC(C5CCC(CC)CC5)CC4)c4c3SC(=C(C#N)C#N)S4)CC2)cc1 (centres unmarked) [Compound B-1],15 % by weight,5 % by weight,deteriorated,C (A variation in Re (550) after the test with respect to the initial retardation value is 30% or more.),B (A solubility in any one of MEK or CPN is 15% or more and less than 30%.)
C=CC(=O)OCCOC(=O)CCC(=O)OCCc1ccc(OC(=O)C2CCC(C(=O)Oc3cc(C(C)(C)C)c(OC(=O)C4CCC(C(=O)Oc5ccc(CCOC(=O)CCC(=O)OCCOC(=O)C=C)cc5)CC4)c4c3SC(=C(C#N)C#N)S4)CC2)cc1 [Compound D-1],40 % by weight,40 % by weight,deteriorate,C (A variation in Re (550) after the test with respect to the initial retardation value is 30% or more.),A (A solubility in any one of MEK or CPN is 30% or more.)
C=CC(=O)OCC(C)(C)COC(=O)CCC(=O)OCCc1ccc(OC(=O)C2CCC(C(=O)Oc3cc(C(C)(C)C)c(OC(=O)C4CCC(C(=O)Oc5ccc(CCOC(=O)CCC(=O)OCC(C)(C)COC(=O)C=C)cc5)CC4)c4c3SC(=C(C#N)C#N)S4)CC2)cc1 (centres unmarked) [Compound C-1],40 % by weight,40 % by weight,–,–,A (A solubility in any one of MEK or CPN is 30% or more.)

# Further lines, with some results ahead:
Solubility CPO [2],Solubility MEK [2],Durability of optically anisotropic film [1],SMILES,Durability 100° C. Relatibe 144 hours [1],Solubility Evaluation [2]
15 % by weight,5 % by weight,–,C=CC(=O)OCC(C)(C)COC(=O)CCC(=O)OCCc1ccc(OC(=O)C2CCC(C(=O)Oc3cc(C(C)(C)C)c(OC(=O)C4CCC(C5CCC(CC)CC5)CC4)c4c3SC(=C(C#N)C#N)S4)CC2)cc1 (centres unmarked) [Compound I-13],B (A variation in Re (550) after the test with respect to the initial retardation value is 15% or more and less than 30% of the initial value.),B (A solubility in any one of MEK or CPN is 15% or more and less than 30%.)
1 % by weight,<1 % by weight,–,CCC1CCC(C2CCC(C(=O)Oc3cc(C(C)(C)C)c(OC(=O)C4CCC(C5CCC(CC)CC5)CC4)c4c3SC(=C(C#N)C#N)S4)CC2)CC1 (centres unmarked) [Compound I-1f],–,C (A solubility in any one of MEK or CPN is less than 15%.)
20 % by weight,10 % by weight,–,C=CC(=O)OCCCCCCOc1ccc(OC(=O)C2CCC(C(=O)Oc3c(C(C)(C)C)cc(OC(=O)C4CCC(C5CCC(CC)CC5)CC4)c4c3SC(=C(C#N)C#N)S4)CC2)cc1 (centres unmarked) [Compound I-3],A (A variation in Re (550) after the test with respect to the initial retardation value is less than 15% of the initial value.),B (A solubility in any one of MEK or CPN is 15% or more and less than 30%.)
30 % by weight,35 % by weight,–,C=CC(=O)OCCOC(=O)CCC(=O)OCCc1ccc(OC(=O)C2CCC(C(=O)Oc3c(C(C)(C)C)cc(OC(=O)C4CCC(C5CCC(CC)CC5)CC4)c4c3SC(=C(C#N)C#N)S4)CC2)cc1 (centres unmarked) [Compound I-2],A (A variation in Re (550) after the test with respect to the initial retardation value is less than 15% of the initial value.),A (A solubility in any one of MEK or CPN is 30% or more.)
